Values joined by “and” are separate entries in the source; they are usually repeats but may differ in a detail not shown here. Equal entries are not always repeated.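 Five compound concentrations were applied to cells in 96-well plates for 48 hours; endpoints were derived by simple linear interpolation of the resulting dose-response curve. GI50 is the concentration that inhibits growth by half. At the TGI there is no net growth.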
How the values were obtained:
Assay in all cases: NCI-60 cell line screen, 48 h
[1] = tested on: CAKI-1 renal
[2] = tested on: DU-145 prostate
[3] = tested on: HCT-116 colon
[4] = tested on: HOP-62 NSCLC
[5] = tested on: MCF7 breast
[6] = tested on: NCI-H23 lung
[7] = tested on: NCI-H460 lung
[8] = tested on: SF-295 CNS
[9] = tested on: T-47D breast
[10] = tested on: U251 CNS

Row | Compound | GI50 [1] | TGI [1] | GI50 [2] | TGI [2] | GI50 [3] | TGI [3] | GI50 [4] | TGI [4] | GI50 [5] | TGI [5] | GI50 [6] | TGI [6] | GI50 [7] | TGI [7] | GI50 [8] | TGI [8] | GI50 [9] | TGI [9] | GI50 [10] | TGI [10]
1 | COc1ccc(CNc2nc3cc(N)cc(N)c3nc2-c2ccccc2)cc1 | 16.3 µM | 35.9 µM | 21.7 µM | 58 µM | 14.4 µM | 27.5 µM | 17.2 µM | 34.3 µM | 13.2 µM | 26.5 µM | 16.8 µM | 34.4 µM | 20.5 µM | 48.4 µM | 17.8 µM | 32.4 µM | 2.8 µM | 11 µM | 13.6 µM | 26.5 µM
2 | CNC(=O)Oc1cc(C)c(/C=C/c2cncc(C(=O)NC)c2)c(C)c1 | > 25 µM | > 25 µM | > 25 µM | > 25 µM | > 25 µM | > 25 µM | > 22.3 µM | > 25 µM | > 25 µM | > 25 µM | > 25 µM | > 25 µM | > 25 µM | > 25 µM | > 25 µM | > 25 µM | > 25 µM | > 25 µM | > 25 µM | > 25 µM
3 | CCS(=O)(=O)Nc1cccc(Nc2c3cccc(C)c3nc3c(C)cccc23)c1OC | 0.347 µM | 15.8 µM | 0.545 µM | 14.1 µM | 0.793 µM | > 51.9 µM | 0.555 µM | > 29.3 µM | 0.168 µM | 49.5 µM | 0.653 µM | > 100 µM | 0.104 µM | 4.6 µM | 0.381 µM | 22.1 µM | 0.58 µM | > 30.4 µM | 0.404 µM | 19.8 µM
4 | CSc1ncnc2c1ncn2C1OC(CO)C(O)OC1O (stereo not given) | – | > 51.7 µM | – | 39.4 µM | – | 21.6 µM | – | 35.4 µM | – | > 100 µM | – | > 44 µM | – | 16 µM | – | > 71.3 µM | – | 17.7 µM | – | 30.1 µM
5 | C=C(CN1CCN(c2cccc(C(F)(F)F)n2)CC1)c1ccc(C(=S)Nc2ccccc2N)cc1 | 3.26 µM | > 100 µM | 6.99 µM | > 100 µM | 2.76 µM | 19.8 µM | 8.08 µM | > 100 µM | 2.87 µM | 14.5 µM | 2.81 µM | 8.85 µM | 2.99 µM | 18.8 µM | 3.48 µM | > 100 µM | 2.26 µM | 8.54 µM | 3.77 µM | 38.5 µM
6 | O=C1c2ccccc2-c2c1c1c(O)cccc1n2-c1ccccc1 | > 100 µM | > 100 µM | > 100 µM | > 100 µM | > 100 µM | > 100 µM | 66.3 µM | > 100 µM | > 100 µM | > 100 µM | > 100 µM | > 100 µM | > 100 µM | > 100 µM | > 100 µM | > 100 µM | > 100 µM | > 100 µM | > 100 µM | > 100 µM
7 | CCOC(=O)C(C)(C)C(O)C(C)C (stereo not given) | – | > 100 µM | – | > 100 µM | – | > 100 µM | – | > 100 µM | – | > 100 µM | – | > 100 µM | – | > 100 µM | – | > 100 µM | – | > 100 µM | – | > 100 µM
8 | COc1cc(-c2ncn(/C=C\C(=O)OC(C)C)n2)cc(C(F)(F)F)c1 | 0.0464 µM and 0.0331 µM | 12.7 µM and 5.52 µM | 0.238 µM and 0.2 µM | 12.5 µM and 11.7 µM | 0.0528 µM and 0.0688 µM | 1.58 µM and 11.3 µM | 0.295 µM and 0.262 µM | 3.46 µM and 3.94 µM | 0.0364 µM and 0.0477 µM | 1.67 µM and 10.4 µM | 0.0663 µM and 0.103 µM | 14.1 µM and 12.1 µM | 0.0293 µM and 0.0327 µM | 11.1 µM and 1.4 µM | 0.0891 µM and 0.196 µM | 14.1 µM and 11.8 µM | 0.12 µM and 0.0666 µM | 15 µM and 12 µM | 0.0335 µM and 0.0683 µM | 5.24 µM and 11.4 µM
